US11999723B2, “Pyrazole-containing macrophage migration inhibitory factor inhibitors” (priority 2018, dated 2024)

Columns and labels:
MIF = MIF (Homo sapiens (Human), UniProt P14174); assay: Tautomerase assay using 4-hydroxyphenylpyruvate (HPP), initial virtual screening study; type: biochemical; settings: at 50 μM; HPP substrate
Text: Success in the past has come from exchange of the phenol for a 6:5 fused heteroaromatic incorporating a pyrrole or pyrazole that retains the hydrogen-bond donating character of phenol. However, the MIF active site is too constricted near Asn97 for this approach to be viable; addition of a methyl group ortho to the hydroxyl group for the compound in FIG. 1 leads to a ca. 100-fold loss in activity. Instead, interest has focused on direct replacement of the phenol by a pyrazole. […] Thus, an alternative series from the virtual screening and from de novo design was pursued, which provided the biaryltriazoles including 2. However, interest in 5 was renewed since in another phenol-containing inhibitor series rapid metabolic glucoronidation and sulfation were observed. It was decided to retest 5 in an HPP tautomerase assay using optimized protocols.

[1] = Aqueous solubility, shake-flask method; type: physicochemical; settings: Britton-Robinson buffer at pH 6.5
Method: Aqueous solubility values of selected compounds were obtained via the shake-flask method. The solid sample (1-4 mg) was suspended in 1.5-2.0 mL Britton-Robinson (BR) buffer (0.04 M acetic acid, 0.04 M phosphoric acid, 0.04 M boric acid, pH 6.5). The mixture, containing excess undissolved compound, was stirred at 30° C. for 48 hours. The saturated solution was separated from the precipitate by filtration through a 0.45 μm polyethersulfone membrane (VWR International). The filtrate was diluted with BR buffer if necessary, then cut with an equal volume of DMSO. UV-vis absorbance was measured with an Agilent 8453 UV-visible Spectroscopy System (200-900 nm). Calibration curves were prepared with sample concentrations ranging from 0.24 μg/mL-0.25 mg/mL in 50:50 DMSO/BR buffer. Reported solubility results are the average values of two shake-flask experiments run in parallel. Piroxicam (purchased from Sigma-Aldrich) was used as a control, using BR buffer at pH 3.73.
The compounds reported here are listed in Table 2 along with the results from the tautomerase assay. The identity of assayed compounds was confirmed by ^1H and ^13C NMR and high-resolution mass spectrometry; HPLC analyses established purity as >95%. As in prior studies, the inhibition constants Ki were determined using HPP as the substrate. Inhibitory activity is monitored by measuring formation of the borate complex of the enol product at 305 nm using a Tecan Infinite F500 plate reader. In addition, the aqueous solubilities of several compounds were measured with a shake-flask procedure. Saturated solutions are filtered (polyethersulfone syringe, 0.2 μm pore) and analyzed by UV-vis spectroscopy (Agilent 8453).

Chain of MIF (P14174 2-115): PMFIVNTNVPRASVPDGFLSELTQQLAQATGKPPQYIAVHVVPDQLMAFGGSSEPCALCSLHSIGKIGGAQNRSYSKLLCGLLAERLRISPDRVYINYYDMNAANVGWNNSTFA

Structure (SMILES): O=C(O)c1cccc(-c2cn[nH]c2)c1 [Compound 5, reference compound]
- maximum inhibition (MIF): 30%
- aqueous solubility [1]: 927+88 μg/mL
